These results are taken from patent US12479836B2, “Sphingosine-1-phosphate receptor agonist, preparation method therefor, and pharmaceutical composition containing same as active ingredient” (priority 2019, dated 2025).

Each structure is given as a SMILES string.

This experiment has as its target T1, human sphingosine-1-phosphate 1 receptor (S1P1 receptor) (Homo sapiens, UniProt P21453).
T1 construct: host or cells: CHO-K1
Description: Ca2+ inducing ability (calcium increase, Calcium 5 assay kit) in CHO cells overexpressing human S1P1 receptor. Format: cell-based. Here is the method: Experimental Example: Evaluation of Ca^2+ Inducing Ability of a Test Compound Using a Cell Line Expressing Human Sphingosine-1-Phosphate
It is a functional test method in which a therapeutic efficacy of an agonist compound is determined by an increase in calcium in CHO (Chinese hamster ovary) cells, which overexpress human sphingosine-1-phosphate 1 receptor (S1P1 receptor) that react with sphingosine-1-phosphate (S1P). […] coupled to Gi protein that reacts with the S1P1 receptor and increases intracellular calcium concentration. CHO-K1 cells, which are used for preparing a stable cell line, show no change in the calcium concentration by S1P, and thus they are good for checking signals from human S1P receptors after transfecting the cells with each subtype of the receptors.
To prepare CHO cells which overexpress human S1P1-S1P5, human clones for each subtype having HA at the N terminal residue (S1P1: EDG010 TN00, S1P2: EDG020TN00, S1P3: EDG030TN00, S1P4: EDG060TN00, S1P5: EDG080TN00) were purchased from Missouri S&T cDNA Resource Center and co-transfected with G-protein alpha subunit (G-alpha-16) into CHO-K1 cells. After separating cells by fluorescence-activated cell sorting (FACS, LK BioScience, JSAN) using HA-antibodies (MACS, Anti-HA-PE), they were selectively cultured in the medium with 10% FBS (Gibco, USA), 0.5 mg/mL Geneticin (Gibco) and 0.2 mg/mL Hygromycin B F12 (Gibco) to obtain the desired cells.
A calcium measurement kit (Calcium 5 assay kit, Molecular Devices) was used to select an agonist compound. The principle of calcium measurement is that calcium-sensitive dyes are applied to cells, they enter into the cytoplasm of the cells during incubation, and when a ligand binds to a certain receptor to release calcium into the cytoplasm, the dyes bind to said calcium to induce fluorescence which is measured. This test method can sensitively measure only the intracellular calcium concentration change because any change that may occur outside the cells is masked by a masking dye.
The experimental procedure was as follows. One day before calcium measurement, CHO cells overexpressing hS1P1-hS1P5 were dispensed into a 96-well plate (bottom clear black well) in 3×10^4 cells per well and cultured at 37° C. under 5% carbon dioxide condition for one day. 100 μl of calcium dyes mixed with Assay Buffer (1×HBSS, 20 mM HEPES, 2.5 mM probenecid, pH 7.4) were dispensed into culture solution in well and cultured at 37° C. for one hour. Test compounds were dissolved in 100% DMSO to prepare 1 μl solution per each concentration, and each solution was mixed with 199 μl Assay Buffer such that the concentrations were […]. The plate cultured with the calcium dyes was put into FlaxstationII (Molecular Devices), and the prepared test compounds (the final concentrations of the test compounds: 10, 1, 0.1, 0.01, 0.001 and 0.0001 μM) were programmed to be automatically inoculated in 50 μl per each well. For a total of 90 seconds, relative fluorescence unit (RFU) values were measured. The value of Reference (S1P substance 1 μM) deducting the blank value was set as 100%, and EC50 values of the test compounds were calculated by prism.

T1 sequence (P21453 whole entry): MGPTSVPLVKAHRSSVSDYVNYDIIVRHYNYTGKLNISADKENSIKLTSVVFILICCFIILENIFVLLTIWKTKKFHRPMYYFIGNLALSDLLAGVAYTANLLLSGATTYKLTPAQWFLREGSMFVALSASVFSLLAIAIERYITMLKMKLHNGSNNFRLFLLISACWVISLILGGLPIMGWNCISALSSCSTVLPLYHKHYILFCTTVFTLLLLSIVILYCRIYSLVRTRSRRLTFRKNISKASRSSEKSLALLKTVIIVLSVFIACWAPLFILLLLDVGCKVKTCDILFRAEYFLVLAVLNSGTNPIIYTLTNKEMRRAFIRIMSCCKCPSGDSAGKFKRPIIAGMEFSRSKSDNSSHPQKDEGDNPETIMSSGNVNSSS

In the case of `CC(C)n1nc(Cl)c2cc(COc3ccc4c(c3)OCC(CN3CC[C@H](C(=O)O)C3)=C4)ccc21` [Example 7, (S)-1-[7-(3-chloro-1-H-isopropyl-1H-indazol-5-ylmethoxy)-2H-chromene-3-ylmethyl]-pyrrolidin-3-carboxylic acid], the EC50 (as a rule, the concentration that produces a half-maximal response) came out at 0.00575 µM.
In the case of `CCCn1nc2ccc(COc3ccc4c(c3)OCC(CN3CC(C(=O)O)C3)=C4)cc2c1Cl` [Example 3, 1-[7-(3-chloro-2-propyl-2H-indazol-5-ylmethoxy)-2H-chromene-3-ylmethyl]-azetidin-3-carboxylic acid] it was 0.0708 µM; in that of `CC(C)n1nc(Cl)c2cc(COc3ccc4c(c3)OCC(CN3CCC[C@H](C(=O)O)C3)=C4)ccc21` [Example 6, (S)-1-[7-(3-chloro-1-H-isopropyl-1H-indazol-5-ylmethoxy)-2H-chromene-3-ylmethyl]-piperidin-3-carboxylic acid], 0.0129 µM; in that of `CC(C)n1nc(Cl)c2cc(COc3ccc4c(c3)OCC(CN(C)CC(=O)O)=C4)ccc21` [Example 1, {[7-(3-chloro-1-isopropyl-1H-indazol-5-ylmethoxy)-2H-chromene-3-ylmethyl]-methyl-amino}-acetic acid], 0.00407 µM.
For `CC(C)n1nc(Cl)c2cc(COc3ccc4c(c3)OCC(CN3CC(CCl)(C(=O)O)C3)=C4)ccc21` [Example 8, 1-[7-(3-chloro-1-isopropyl-1H-indazol-5-ylmethoxy)-2H-chromene-3-ylmethyl]-chloromethyl-azetidin-3-carboxylic acid] the value was 0.00631 µM; for `CC1=C(CN2CCC(C(=O)O)CC2)COc2cc(OCc3ccc4c(c3)c(Cl)nn4C(C)C)ccc21` [Example 10, 1-[7-(3-chloro-1-Isopropyl-1H-indazol-5-ylmethoxy)-4-methyl-2H-chromene-3-ylmethyl]-piperidin-4-carboxylic acid], 0.00275 µM; for `CC(C)n1nc(Cl)c2cc(COc3cc(F)c4c(c3)OCC(CN3CCC(C(=O)O)CC3)=C4)ccc21` [Example 12, 1-[7-(3-chloro-1-H-isopropyl-1H-indazol-5-ylmethoxy)-5-fluoro-2H-chromene-3-ylmethyl]-piperidin-4-carboxyl acid], 0.0144 µM.
For `CCCn1nc(Cl)c2cc(COc3ccc4c(c3)OCC(CN3CCC(C(=O)O)CC3)=C4)ccc21` [Example 17, 1-[7-(3-chloro-1-propyl-1H-Indazol-5-ylmethoxy)-2H-chromene-3-ylmethyl]-piperidin-4-carboxylic acid] the value was 0.0209 µM.
Turning to `CCCn1nc(Cl)c2cc(COc3ccc4c(c3)OCC(CN3CC(C(=O)O)C3)=C4)ccc21` [Example 16, 1-[7-(3-chloro-1-propyl-1H-indazol-5-ylmethoxy)-2H-chromene-3-ylmethyl]-azetidin-3-carboxylic acid], the EC50 is 0.0437 µM.
For `CC(C)n1nc(Cl)c2cc(COc3ccc4c(c3)OCC(CN3CC[C@@H](C(=O)O)C3)=C4)ccc21` [Example 9, (R)-1-[7-(3-chloro-1-Isopropyl-1H-indazol-5-ylmethoxy)-2H-chromene-3-ylmethyl]-pyrrolidin-3-carboxylic acid] the value was 0.0144 µM.
In the case of `CCc1nn(C(C)C)c2ccc(COc3ccc4c(c3)OCC(CN3CCC(C(=O)O)CC3)=C4)cc12` [Example 14, 1-[7-(1-H-isopropyl-3-ethyl-1H-indazol-5-ylmethoxy)-2H-chromene-3-ylmethyl]-piperidin-4-carboxylic acid] it was 0.012 µM.
For `CC(C)n1nc(Cl)c2cc(COc3ccc4c(c3)OCC(CN3CCCC(C(=O)O)CC3)=C4)ccc21` (stereo not drawn) [Example 15, 1-[7-(3-chloro-1-isopropyl-1H-indazol-5-ylmethoxy)-2H-chromene-3-ylmethyl]-azepane-4-carboxylic acid] the value was 0.00631 µM; for `CC(C)n1nc(Cl)c2cc(COc3ccc4c(c3)OCC(CN3CC(C(=O)O)C3)=C4)ccc21` [Example 2, 1-[7-(3-chloro-1-isopropyl-1H-indazol-5-ylmethoxy)-2H-chromene-3-ylmethyl]-azetidin-3-carboxylic acid], 0.00209 µM.
Regarding `CC(C)n1nc(Cl)c2cc(COc3ccc4c(c3)OCC(CN3CCC(C(=O)O)CC3)=C4Cl)ccc21` [Example 11, 1-[4-chloro-7-(3-chloro-1-H-isopropyl-1H-indazol-5-ylmethoxy)-2H-chromene-3-ylmethyl]-piperidin-4-carboxylic acid], the EC50 is 0.00832 µM.
In the case of `CC(C)Cn1nc(Cl)c2cc(COc3cc(F)c4c(c3)OCC(CN3CCC(C(=O)O)CC3)=C4)ccc21` [Example 20, 1-[7-(3-chloro-1-isobutyl-1H-indazol-5-ylmethoxy)-5-fluoro-2H-chromene-3-ylmethyl]-piperidin-4-carboxylic acid] it was 0.00513 µM; in that of `O=C(O)C1CCN(CC2=Cc3c(F)cc(OCc4ccc5c(c4)c(Cl)nn5C4CCCC4)cc3OC2)CC1` [Example 19, 1-[7-(3-chloro-1-cyclopentyl-1H-indazol-5-ylmethoxy)-5-fluoro-2H-chromene-3-ylmethyl]-piperidin-4-carboxylic acid], 0.0708 µM.
For `CC(C)n1nc(Cl)c2cc(COc3ccc4c(c3)OCC(CN3CCC[C@@H](C(=O)O)C3)=C4)ccc21` [Example 5, (R)-1-[7-(3-chloro-1-Isopropyl-1H-indazol-5-ylmethoxy)-2H-chromene-3-ylmethyl]-piperidin-3-carboxylic acid] the value was 0.011 µM.
On to `CC(C)Cn1nc(Cl)c2cc(COc3cc(F)c4c(c3)OCC(CN3CCCC(C(=O)O)CC3)=C4)ccc21` (stereo not drawn) [Example 21, 1-[7-(3-chloro-1-Isobutyl-1H-indazol-5-ylmethoxy)-5-fluoro-2H-chromene-3-ylmethyl]-azepane-4-carboxylic acid], for which the EC50 came out at 0.0144 µM.
For `CC(C)n1nc(C(F)(F)F)c2cc(COc3ccc4c(c3)OCC(CN3CCC(C(=O)O)CC3)=C4)ccc21` [Example 13, 1-[7-(1-Isopropyl-3-trifluoromethyl-1H-indazol-5-ylmethoxy)-2H-chromene-3-ylmethyl]-piperidin-4-carboxylic acid] the value was 0.0174 µM; for `O=C(O)C1CCN(CC2=Cc3ccc(OCc4ccc5c(c4)c(Cl)nn5CC4CC4)cc3OC2)CC1` [Example 18, 1-[7-(3-chloro-1-cyclopropylmethyl-1H-indazol-5-ylmethoxy)-2H-chromene-3-ylmethyl]-piperidin-4-carboxylic acid], 0.0646 µM.
For `CC(C)n1nc(Cl)c2cc(COc3ccc4c(c3)OCC(CN3CCC(C(=O)O)CC3)=C4)ccc21` [Example 4, 1-[7-(3-chloro-1-isopropyl-1H-indazol-5-ylmethoxy)-2H-chromene-3-ylmethyl]-piperidin-4-carboxylic acid] the value was 0.00912 µM.
